{"source": "the supplement of paper PMC12076712", "experiment_in_all_cases": "pIC50, kinobeads binding competition", "key": {"[1]": {"molecular_target": "T1, ADCK1 (UniProt Q86TW2)", "T1 sequence (whole entry)": "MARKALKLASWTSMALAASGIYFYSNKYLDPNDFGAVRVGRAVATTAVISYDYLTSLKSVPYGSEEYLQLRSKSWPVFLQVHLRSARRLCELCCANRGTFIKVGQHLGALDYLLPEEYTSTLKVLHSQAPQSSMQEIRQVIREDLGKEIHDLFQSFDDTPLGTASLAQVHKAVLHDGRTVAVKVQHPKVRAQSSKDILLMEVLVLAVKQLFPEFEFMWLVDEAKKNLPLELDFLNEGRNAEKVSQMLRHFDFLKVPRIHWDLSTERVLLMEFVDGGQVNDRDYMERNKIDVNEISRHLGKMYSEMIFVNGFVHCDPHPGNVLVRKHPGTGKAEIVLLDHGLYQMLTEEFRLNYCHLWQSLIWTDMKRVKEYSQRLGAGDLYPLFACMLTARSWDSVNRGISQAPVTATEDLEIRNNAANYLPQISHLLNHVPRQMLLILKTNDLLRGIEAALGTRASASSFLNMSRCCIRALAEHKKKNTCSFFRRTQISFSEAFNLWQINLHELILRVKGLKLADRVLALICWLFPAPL", "details": "cell material: Lysate mix", "outline": "(§1)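 Nine compound concentrations were tested, starting at 30 μM in 1:4 steps on live Jurkat cells (60 min, 37 °C, then lysis) or in 1:5 steps on Jurkat lysate or a 1:1:1:1 HEK293/K-562/HepG2/placenta lysate mix (60 min, 4 °C). Kinobeads-bound proteins were digested and quantified with TMT10 LC-MS/MS. pIC50 values are from logistic dose-response fits in the R drc package of fold changes relative to vehicle, from biological duplicates.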"}, "[2]": {"molecular_target": "T2, EPHA1 (UniProt P21709)", "T2 sequence (whole entry)": "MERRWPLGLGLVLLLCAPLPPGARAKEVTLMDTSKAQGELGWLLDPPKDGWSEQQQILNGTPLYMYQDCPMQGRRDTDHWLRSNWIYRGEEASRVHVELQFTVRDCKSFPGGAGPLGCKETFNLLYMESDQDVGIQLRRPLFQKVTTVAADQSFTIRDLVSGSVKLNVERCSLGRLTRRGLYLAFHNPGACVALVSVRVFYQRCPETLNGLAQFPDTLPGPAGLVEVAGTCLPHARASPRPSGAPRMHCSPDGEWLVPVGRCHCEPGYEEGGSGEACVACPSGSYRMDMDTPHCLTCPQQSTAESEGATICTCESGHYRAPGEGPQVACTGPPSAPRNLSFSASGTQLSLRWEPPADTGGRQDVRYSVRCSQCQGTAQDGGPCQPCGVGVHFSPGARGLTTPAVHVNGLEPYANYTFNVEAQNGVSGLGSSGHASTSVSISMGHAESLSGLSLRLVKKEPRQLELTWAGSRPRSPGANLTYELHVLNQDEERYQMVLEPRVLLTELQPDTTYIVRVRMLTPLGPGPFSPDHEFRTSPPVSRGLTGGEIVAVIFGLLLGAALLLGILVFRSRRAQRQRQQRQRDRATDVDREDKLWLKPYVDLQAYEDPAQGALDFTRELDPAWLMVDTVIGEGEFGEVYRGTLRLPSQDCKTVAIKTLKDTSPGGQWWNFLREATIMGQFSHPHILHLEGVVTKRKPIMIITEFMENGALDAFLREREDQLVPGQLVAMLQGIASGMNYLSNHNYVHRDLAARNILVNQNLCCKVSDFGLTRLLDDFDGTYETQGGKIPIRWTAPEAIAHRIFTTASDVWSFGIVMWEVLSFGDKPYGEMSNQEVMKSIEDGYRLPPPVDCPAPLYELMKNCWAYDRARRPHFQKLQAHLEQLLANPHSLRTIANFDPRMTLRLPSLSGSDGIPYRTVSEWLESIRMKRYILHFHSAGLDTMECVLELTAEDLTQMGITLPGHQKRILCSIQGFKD", "details": "cell material: Lysate mix", "outline": "as §1"}, "[3]": {"molecular_target": "MET (UniProt P08581)", "sequence (P08581 whole entry)": "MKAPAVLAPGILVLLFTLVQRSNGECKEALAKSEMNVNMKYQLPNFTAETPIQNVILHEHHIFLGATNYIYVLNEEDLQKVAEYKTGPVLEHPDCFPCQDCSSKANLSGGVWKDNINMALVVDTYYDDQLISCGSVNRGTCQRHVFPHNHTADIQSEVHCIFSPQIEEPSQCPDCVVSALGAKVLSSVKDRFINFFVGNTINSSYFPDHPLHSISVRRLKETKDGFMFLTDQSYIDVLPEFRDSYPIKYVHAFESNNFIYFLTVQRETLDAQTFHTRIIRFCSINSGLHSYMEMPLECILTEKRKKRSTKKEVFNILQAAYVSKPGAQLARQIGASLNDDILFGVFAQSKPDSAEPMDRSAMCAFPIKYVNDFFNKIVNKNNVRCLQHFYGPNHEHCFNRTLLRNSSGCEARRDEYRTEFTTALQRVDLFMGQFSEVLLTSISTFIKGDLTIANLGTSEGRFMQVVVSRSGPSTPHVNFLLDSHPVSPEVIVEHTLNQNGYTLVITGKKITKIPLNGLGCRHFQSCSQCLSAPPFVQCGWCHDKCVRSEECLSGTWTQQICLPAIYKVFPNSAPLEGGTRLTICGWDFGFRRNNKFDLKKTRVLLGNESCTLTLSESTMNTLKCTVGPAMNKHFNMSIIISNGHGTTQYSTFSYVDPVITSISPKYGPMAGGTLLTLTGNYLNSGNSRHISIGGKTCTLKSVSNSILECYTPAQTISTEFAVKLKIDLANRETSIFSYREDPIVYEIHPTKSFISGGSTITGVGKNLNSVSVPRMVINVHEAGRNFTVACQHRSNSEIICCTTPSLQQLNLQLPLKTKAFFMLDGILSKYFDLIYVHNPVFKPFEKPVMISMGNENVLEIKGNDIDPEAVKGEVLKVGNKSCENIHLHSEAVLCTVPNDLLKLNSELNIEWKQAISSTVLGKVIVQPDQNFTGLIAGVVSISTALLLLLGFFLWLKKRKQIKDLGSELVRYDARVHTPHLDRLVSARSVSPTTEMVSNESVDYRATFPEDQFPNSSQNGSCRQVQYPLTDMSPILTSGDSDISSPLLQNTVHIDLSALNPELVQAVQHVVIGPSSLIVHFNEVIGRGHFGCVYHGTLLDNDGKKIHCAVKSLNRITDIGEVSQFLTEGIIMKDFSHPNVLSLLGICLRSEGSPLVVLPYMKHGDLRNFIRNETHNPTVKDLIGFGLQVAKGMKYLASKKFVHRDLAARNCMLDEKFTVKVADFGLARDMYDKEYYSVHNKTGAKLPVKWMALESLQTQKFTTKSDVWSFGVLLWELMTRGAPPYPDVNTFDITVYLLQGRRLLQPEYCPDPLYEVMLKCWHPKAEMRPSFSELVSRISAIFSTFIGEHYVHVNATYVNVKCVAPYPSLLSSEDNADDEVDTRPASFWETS", "details": "cell material: Lysate mix", "outline": "as §1"}, "[4]": {"molecular_target": "RPS6KA6 (UniProt Q9UK32)", "sequence (Q9UK32 whole entry)": "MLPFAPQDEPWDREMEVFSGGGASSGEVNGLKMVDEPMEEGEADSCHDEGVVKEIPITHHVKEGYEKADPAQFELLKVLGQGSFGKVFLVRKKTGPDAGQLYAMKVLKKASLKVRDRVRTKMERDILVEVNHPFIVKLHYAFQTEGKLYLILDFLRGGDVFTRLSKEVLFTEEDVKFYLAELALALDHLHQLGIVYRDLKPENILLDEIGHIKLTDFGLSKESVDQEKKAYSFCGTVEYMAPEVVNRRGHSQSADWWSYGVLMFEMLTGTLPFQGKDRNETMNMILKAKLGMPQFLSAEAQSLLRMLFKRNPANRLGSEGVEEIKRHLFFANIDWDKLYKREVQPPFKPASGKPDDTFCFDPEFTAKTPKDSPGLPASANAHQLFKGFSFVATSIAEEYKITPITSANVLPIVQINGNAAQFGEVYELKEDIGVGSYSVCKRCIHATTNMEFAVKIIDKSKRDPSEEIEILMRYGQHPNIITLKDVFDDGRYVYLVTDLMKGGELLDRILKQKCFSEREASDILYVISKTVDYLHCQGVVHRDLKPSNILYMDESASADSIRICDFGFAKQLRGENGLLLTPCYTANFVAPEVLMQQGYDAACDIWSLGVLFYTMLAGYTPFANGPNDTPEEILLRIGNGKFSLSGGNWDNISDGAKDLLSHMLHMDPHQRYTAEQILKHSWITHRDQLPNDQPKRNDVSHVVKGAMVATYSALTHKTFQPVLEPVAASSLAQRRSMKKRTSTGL", "details": "cell material: Lysate mix", "outline": "as §1"}, "[5]": {"molecular_target": "UniProt O95747", "sequence (O95747 whole entry, looked up)": "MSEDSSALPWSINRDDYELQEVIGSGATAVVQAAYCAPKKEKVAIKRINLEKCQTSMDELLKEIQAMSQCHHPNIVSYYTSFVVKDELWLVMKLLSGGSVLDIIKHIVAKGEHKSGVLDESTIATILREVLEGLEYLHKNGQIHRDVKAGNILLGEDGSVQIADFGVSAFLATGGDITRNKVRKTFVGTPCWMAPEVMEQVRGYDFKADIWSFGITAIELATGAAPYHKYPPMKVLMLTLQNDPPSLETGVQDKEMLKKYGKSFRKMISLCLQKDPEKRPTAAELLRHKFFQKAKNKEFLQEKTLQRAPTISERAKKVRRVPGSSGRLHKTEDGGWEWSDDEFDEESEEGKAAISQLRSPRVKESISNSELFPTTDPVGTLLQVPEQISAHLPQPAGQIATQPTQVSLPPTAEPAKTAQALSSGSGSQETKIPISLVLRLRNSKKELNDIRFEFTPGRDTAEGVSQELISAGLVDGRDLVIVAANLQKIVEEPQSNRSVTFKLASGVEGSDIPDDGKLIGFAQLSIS", "outline": "as §1"}, "[6]": {"molecular_target": "T3, UniProt P52564", "T3 sequence (whole entry)": "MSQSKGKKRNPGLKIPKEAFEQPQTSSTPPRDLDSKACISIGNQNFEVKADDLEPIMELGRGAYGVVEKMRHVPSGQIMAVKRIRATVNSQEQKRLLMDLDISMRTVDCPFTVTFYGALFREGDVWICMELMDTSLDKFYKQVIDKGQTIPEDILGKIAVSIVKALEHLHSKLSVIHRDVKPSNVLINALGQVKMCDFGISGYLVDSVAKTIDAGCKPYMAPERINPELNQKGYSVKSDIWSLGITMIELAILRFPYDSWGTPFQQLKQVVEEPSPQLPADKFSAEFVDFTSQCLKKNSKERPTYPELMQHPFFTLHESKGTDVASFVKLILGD", "outline": "as §1"}, "[7]": {"molecular_target": "T4, UniProt Q96D53", "T4 sequence (whole entry)": "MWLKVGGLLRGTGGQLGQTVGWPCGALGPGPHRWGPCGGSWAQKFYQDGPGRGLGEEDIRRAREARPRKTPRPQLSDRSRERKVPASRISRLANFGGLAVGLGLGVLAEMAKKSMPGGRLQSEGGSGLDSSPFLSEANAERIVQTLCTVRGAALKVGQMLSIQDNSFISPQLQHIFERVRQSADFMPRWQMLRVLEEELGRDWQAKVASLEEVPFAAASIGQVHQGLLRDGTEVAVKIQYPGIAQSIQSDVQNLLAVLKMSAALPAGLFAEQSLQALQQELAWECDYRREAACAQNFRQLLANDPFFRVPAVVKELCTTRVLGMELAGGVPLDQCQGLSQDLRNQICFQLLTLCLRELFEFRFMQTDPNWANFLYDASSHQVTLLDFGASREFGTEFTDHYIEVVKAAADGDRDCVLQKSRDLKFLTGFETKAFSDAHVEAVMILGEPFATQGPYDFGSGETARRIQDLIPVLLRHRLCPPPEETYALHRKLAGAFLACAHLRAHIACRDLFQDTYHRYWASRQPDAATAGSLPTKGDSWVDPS", "outline": "as §1"}, "[8]": {"molecular_target": "UniProt Q9Y6M4", "sequence (Q9Y6M4 whole entry, looked up)": "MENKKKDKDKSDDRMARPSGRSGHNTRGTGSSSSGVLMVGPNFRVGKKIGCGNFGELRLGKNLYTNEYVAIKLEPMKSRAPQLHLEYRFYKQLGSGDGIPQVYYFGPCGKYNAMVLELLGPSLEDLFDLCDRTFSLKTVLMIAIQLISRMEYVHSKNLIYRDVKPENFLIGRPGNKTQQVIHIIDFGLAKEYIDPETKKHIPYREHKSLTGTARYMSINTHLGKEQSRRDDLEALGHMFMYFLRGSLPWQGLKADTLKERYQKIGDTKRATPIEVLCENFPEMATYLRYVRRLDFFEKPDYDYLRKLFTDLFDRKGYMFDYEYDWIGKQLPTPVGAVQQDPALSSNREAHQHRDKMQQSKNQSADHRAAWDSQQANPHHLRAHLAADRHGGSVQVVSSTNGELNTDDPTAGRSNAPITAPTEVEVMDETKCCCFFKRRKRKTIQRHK", "details": "cell material: Lysate mix", "outline": "as §1"}, "[9]": {"molecular_target": "FRK (UniProt P42685)", "sequence (P42685 whole entry)": "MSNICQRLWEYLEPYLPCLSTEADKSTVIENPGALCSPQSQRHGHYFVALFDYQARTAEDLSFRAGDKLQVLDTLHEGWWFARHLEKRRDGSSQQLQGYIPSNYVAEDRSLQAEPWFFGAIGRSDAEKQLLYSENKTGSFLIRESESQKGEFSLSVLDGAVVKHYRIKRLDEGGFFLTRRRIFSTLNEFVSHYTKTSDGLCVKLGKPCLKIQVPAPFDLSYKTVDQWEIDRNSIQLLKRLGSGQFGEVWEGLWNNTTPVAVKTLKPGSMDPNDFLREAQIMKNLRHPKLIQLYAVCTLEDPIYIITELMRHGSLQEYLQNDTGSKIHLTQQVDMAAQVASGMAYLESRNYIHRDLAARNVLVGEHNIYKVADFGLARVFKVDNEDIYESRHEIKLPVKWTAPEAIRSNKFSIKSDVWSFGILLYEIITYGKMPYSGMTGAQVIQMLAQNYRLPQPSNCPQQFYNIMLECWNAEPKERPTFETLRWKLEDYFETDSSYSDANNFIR", "details": "cell material: Lysate mix", "outline": "as §1"}, "[10]": {"molecular_target": "CDC7 (UniProt O00311)", "sequence (O00311 whole entry, looked up)": "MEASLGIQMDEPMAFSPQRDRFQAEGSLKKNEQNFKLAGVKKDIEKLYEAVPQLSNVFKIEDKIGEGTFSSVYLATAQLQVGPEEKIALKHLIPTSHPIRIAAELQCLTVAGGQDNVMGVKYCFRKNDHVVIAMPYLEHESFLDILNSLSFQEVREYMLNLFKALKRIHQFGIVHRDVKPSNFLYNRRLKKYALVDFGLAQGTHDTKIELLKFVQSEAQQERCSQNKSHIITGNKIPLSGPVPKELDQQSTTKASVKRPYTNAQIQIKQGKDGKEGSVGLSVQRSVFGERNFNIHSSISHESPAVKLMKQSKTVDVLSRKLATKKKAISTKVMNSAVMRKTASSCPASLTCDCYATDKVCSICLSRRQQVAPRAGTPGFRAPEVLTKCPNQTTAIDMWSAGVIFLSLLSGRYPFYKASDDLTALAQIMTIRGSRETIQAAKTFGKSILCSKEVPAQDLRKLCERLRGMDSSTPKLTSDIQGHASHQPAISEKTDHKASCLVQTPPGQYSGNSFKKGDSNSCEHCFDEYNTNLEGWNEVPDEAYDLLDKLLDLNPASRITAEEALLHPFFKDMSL", "outline": "as §1"}}}
{"smiles": "O=C(NCCNC(=O)c1cc(Nc2cc(C3CC3)[nH]n2)nc(N2CCN(Cc3ccc(S(=O)(=O)F)cc3)CC2)n1)OC1CC/C=C/CCC1", "note": "(centres undefined)", "values": [{"measurement": "pIC50", "setting": "[1]", "result": "< 4.52"}, {"measurement": "pIC50", "setting": "[2]", "result": "< 4.52"}, {"measurement": "pIC50", "setting": "[3]", "result": "< 4.52"}, {"measurement": "pIC50", "setting": "[4]", "result": "< 4.52"}, {"measurement": "pIC50", "setting": "[5]; cell material: Jurkat cells", "result": 5.3}, {"measurement": "pIC50", "setting": "[5]; cell material: Jurkat lysate", "result": "< 4.52"}, {"measurement": "pIC50", "setting": "[5]; cell material: Lysate mix", "result": "< 4.52"}, {"measurement": "pIC50", "setting": "[6]; cell material: Jurkat cells", "result": "< 4.52"}, {"measurement": "pIC50", "setting": "[6]; cell material: Jurkat lysate", "result": "< 4.52"}, {"measurement": "pIC50", "setting": "[6]; cell material: Lysate mix", "result": "< 4.52"}, {"measurement": "pIC50", "setting": "[7]; cell material: Jurkat cells", "result": "< 4.52"}, {"measurement": "pIC50", "setting": "[7]; cell material: Lysate mix", "result": "< 4.52"}, {"measurement": "pIC50", "setting": "[8]", "result": "< 4.52"}]}
{"smiles": "Cc1cc(Nc2cc(C(=O)NCCNC(=O)OC3CC/C=C/CCC3)nc(N3CCN(Cc4ccc(S(=O)(=O)F)cc4)CC3)n2)n[nH]1", "note": "(centres undefined)", "values": [{"measurement": "pIC50", "setting": "[1]", "result": "< 4.52"}, {"measurement": "pIC50", "setting": "[2]", "result": "< 4.52"}, {"measurement": "pIC50", "setting": "[9]", "result": "< 4.52"}, {"measurement": "pIC50", "setting": "[3]", "result": "< 4.52"}, {"measurement": "pIC50", "setting": "[4]", "result": "< 4.52"}, {"measurement": "pIC50", "setting": "[5]; cell material: Lysate mix", "result": "< 4.52"}, {"measurement": "pIC50", "setting": "[6]; cell material: Lysate mix", "result": "< 4.52"}]}
{"smiles": "CCNC(=O)c1cc(Nc2cc(C3CC3)[nH]n2)nc(N2CCN(Cc3ccc(S(=O)(=O)F)cc3)CC2)n1", "values": [{"measurement": "pIC50", "setting": "[10]; cell material: Lysate mix", "result": 4.57}, {"measurement": "pIC50", "setting": "[9]", "result": 5.98}, {"measurement": "pIC50", "setting": "[3]", "result": 4.92}, {"measurement": "pIC50", "setting": "[4]", "result": 4.87}, {"measurement": "pIC50", "setting": "[5]; cell material: Lysate mix", "result": 5.24}, {"measurement": "pIC50", "setting": "[6]; cell material: Lysate mix", "result": 5.2}, {"measurement": "pIC50", "setting": "[8]", "result": 4.89}]}
{"smiles": "CCNC(=O)c1cc(Nc2cc(C)[nH]n2)nc(N2CCN(Cc3ccc(S(=O)(=O)F)cc3)CC2)n1", "values": [{"measurement": "pIC50", "setting": "[1]", "result": "< 4.52"}, {"measurement": "pIC50", "setting": "[2]", "result": "< 4.52"}, {"measurement": "pIC50", "setting": "[9]", "result": 6.23}, {"measurement": "pIC50", "setting": "[3]", "result": "< 4.52"}, {"measurement": "pIC50", "setting": "[5]; cell material: Lysate mix", "result": "< 4.52"}, {"measurement": "pIC50", "setting": "[6]; cell material: Lysate mix", "result": 4.62}, {"measurement": "pIC50", "setting": "[7]; cell material: Lysate mix", "result": "< 4.52"}, {"measurement": "pIC50", "setting": "[8]", "result": "< 4.52"}]}
{"smiles": "C#CCNC(=O)c1cc(Nc2cc(C3CC3)[nH]n2)nc(N2CCN(Cc3ccc(S(=O)(=O)F)cc3)CC2)n1", "values": [{"measurement": "pIC50", "setting": "[1]", "result": "< 4.52"}, {"measurement": "pIC50", "setting": "[10]; cell material: Jurkat cells", "result": 5.68}, {"measurement": "pIC50", "setting": "[2]", "result": 4.66}, {"measurement": "pIC50", "setting": "[9]", "result": 6.27}, {"measurement": "pIC50", "setting": "[4]", "result": 4.94}, {"measurement": "pIC50", "setting": "[5]; cell material: Jurkat cells", "result": 6.16}, {"measurement": "pIC50", "setting": "[5]; cell material: Jurkat lysate", "result": 5.4}, {"measurement": "pIC50", "setting": "[5]; cell material: Lysate mix", "result": 5.54}, {"measurement": "pIC50", "setting": "[6]; cell material: Jurkat cells", "result": 5.61}, {"measurement": "pIC50", "setting": "[6]; cell material: Jurkat lysate", "result": "< 4.52"}, {"measurement": "pIC50", "setting": "[6]; cell material: Lysate mix", "result": 5.21}, {"measurement": "pIC50", "setting": "[7]; cell material: Jurkat cells", "result": "< 4.52"}, {"measurement": "pIC50", "setting": "[8]", "result": "< 4.52"}]}
{"smiles": "C#CCNC(=O)c1cc(Nc2cc(C)[nH]n2)nc(N2CCN(Cc3ccc(S(=O)(=O)F)cc3)CC2)n1", "values": [{"measurement": "pIC50", "setting": "[1]", "result": "< 4.52"}, {"measurement": "pIC50", "setting": "[10]; cell material: Lysate mix", "result": "< 4.52"}, {"measurement": "pIC50", "setting": "[2]", "result": "< 4.52"}, {"measurement": "pIC50", "setting": "[9]", "result": 5.78}, {"measurement": "pIC50", "setting": "[3]", "result": "< 4.52"}, {"measurement": "pIC50", "setting": "[4]", "result": "< 4.52"}]}
